Measured values reported in PubChem BioAssay AID687005 (Broad Institute, 2013).
Records with an inconclusive call do not appear. Active and inactive are the calls of the source.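 Rule for the calls: active = Compounds that reduce signal, with fitted half-maximal dose at or under twice the top valid tested dose; inconclusive = Poor fit, or flat curve losing 30 to 70% of signal; inactive = Potency past limit, flat within 30%, or opposite direction.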

test: viability loss in HEK293T cells – cell-based, ATP luminescence, cherry-pick samples, cytotoxicity control, dose response (AID 687005); settings: HEK293T viability, ATP luminescence (CellTiter-Glo), 48 h; at 23.5 µM (top of the series)

| Compound | activity change, negative = cytotoxicity |
| --- | --- |
| C[C@@H]1CCCCO[C@@H](CN(C)CC2CCCCC2)[C@@H](C)CN([C@@H](C)CO)C(=O)c2cc(NS(=O)(=O)c3ccccc3)ccc2O1 | -40.3% (inactive) |
| C[C@@H]1CN([C@H](C)CO)C(=O)c2cc(NS(=O)(=O)c3cn(C)cn3)ccc2O[C@H]1CN(C)C(=O)Nc1cccc2ccccc12 | 17.8% (inactive) |
| CO[C@@H]1CN(C)C(=O)c2cc(NC(=O)C3CCOCC3)ccc2OC[C@H](C)NC[C@@H]1C | -2.94% (inactive) |
| N#Cc1ccc(-c2ccc3c(c2)[C@H]2[C@H](CCN2C(=O)Cc2ccccc2)[C@@H](CO)N3)cc1 | -73.4% (inactive) |

same assay, conditions: HEK293T viability, ATP luminescence (CellTiter-Glo), 48 h; at 26 µM (top of the series)

| Compound | activity change, negative = cytotoxicity |
| --- | --- |
| C[C@@H]1CN([C@H](C)CO)C(=O)c2cc(NC(=O)Nc3cccc4ccccc34)ccc2O[C@@H](C)CCCCO[C@@H]1CN(C)Cc1ccc2c(c1)OCO2 | -13.2% (inactive) |
| COCC#Cc1cnc2c(c1)C(=O)N([C@H](C)CO)C[C@@H](C)[C@@H](CN(C)C(=O)Nc1ccc(OC)cc1)O2 | -11.3% (inactive) |
| C[C@H](NC(=O)C[C@H]1CC[C@@H](NC(=O)Cc2ccccn2)[C@@H](CO)O1)c1ccccc1 | 25.6% (inactive) |
| O=C(NC1CCCCC1)N[C@@H]1CC[C@@H](CCNS(=O)(=O)c2ccc(Cl)cc2)O[C@H]1CO | 45.5% (inactive) |
| COc1ccc(CN(C)C[C@@H]2Oc3ccc(NC(=O)C4CC4)cc3C(=O)N([C@H](C)CO)C[C@H]2C)cc1 | 15.3% (inactive) |
| C[C@H]1CN([C@@H](C)CO)C(=O)c2cc(-c3cncnc3)cnc2O[C@H]1CN(C)C(=O)c1ccccc1F | 4.74% (inactive) |
| COc1cccc(S(=O)(=O)Nc2ccc3c(c2)[C@H]2C[C@H](CC(=O)NCc4ccccc4F)O[C@@H](CO)[C@H]2O3)c1 | 2.6% (inactive) |
| C[C@@H]1CN([C@@H](C)CO)C(=O)Cc2cc(NC(=O)Nc3cccc4ccccc34)ccc2O[C@@H]1CN(C)Cc1ccc(C(=O)O)cc1 | 30.4% (inactive) |
| O=C1CCC(C(=O)Nc2cccc3ccccc23)N1 (stereo unspecified) | 25.1% (inactive) |
| N#C[C@@H]1[C@@H](c2ccccc2)[C@@H](CO)N1C(=O)Cc1ccccc1 | -0.39% (inactive) |
| CNC[C@@H]1OCCCC[C@H](C)Oc2ccc(NC(=O)c3ccccc3)cc2C(=O)N([C@@H](C)CO)C[C@@H]1C | 6.33% (inactive) |
| C[C@@H]1CCCCO[C@@H](CN(C)S(=O)(=O)c2cccs2)[C@H](C)CN([C@@H](C)CO)C(=O)c2cc(NC(=O)CCC(F)(F)F)ccc2O1 | -7.43% (inactive) |
| CC(C)NC(=O)Nc1ccc2c(c1)C(=O)N([C@@H](C)CO)C[C@H](C)[C@@H](CN(C)Cc1ccc3c(c1)OCO3)OCCCC[C@@H](C)O2 | -28.1% (inactive) |
| O=C(NCC[C@H]1CC[C@H](NS(=O)(=O)c2ccc(F)cc2)[C@@H](CO)O1)c1ccc2c(c1)OCO2 | -2.6% (inactive) |
| CCc1ccc(C(C)NC(=S)NCc2ccc(F)cc2)cc1 (stereo unspecified) | 17.2% (inactive) |
| CO[C@@H]1CN(C)C(=O)c2cc(NS(=O)(=O)c3ccc(C)cc3)ccc2OC[C@@H](C)N(C)C[C@@H]1C | 5.91% (inactive) |
| Cc1cccc(NC(=O)C2NC(=O)CC2c2ccccc2)c1C (stereo unspecified) | 8.03% (inactive) |
| Cc1cc(C)c(NC(=O)C2CCCN2C)c(C)c1 (stereo unspecified) | 10.5% (inactive) |
| Cc1ccc(S(=O)(=O)Nc2ccc3c(c2)C(=O)N([C@H](C)CO)C[C@H](C)[C@@H](CN(C)Cc2ccccc2)O3)cc1 | 43.1% (inactive) |
| COc1ccc(NC(=O)Nc2ccc3c(c2)C(=O)N([C@H](C)CO)C[C@@H](C)[C@H](CN(C)S(=O)(=O)c2ccc(Cl)cc2)OCCCC[C@@H](C)O3)cc1 | -9.56% (inactive) |
| CCC(=O)N1[C@H](CO)[C@H](c2ccc(-c3ccc(F)cc3)cc2)[C@@H]1CNC(C)=O | -42.1% (inactive) |

same assay, conditions: HEK293T viability, ATP luminescence (CellTiter-Glo), 48 h; at 42 µM (top of the series)

| Compound | activity change, negative = cytotoxicity |
| --- | --- |
| O=C(Cc1cccs1)N1CCN(c2ccccc2)CC1 | 21.1% (inactive) |
